According to paper PMC6054692, “Library screening of cell-penetrating peptide for BY-2 cells, leaves of Arabidopsis, tobacco, tomato, poplar, and rice callus” (Scientific Reports, 2018):

Test system: BY-2 cells
Test: Cell penetration efficiency into BY-2 suspension culture cells (CLSM of TAMRA-labeled CPP)
Settings: negative control without CPP, 15 min, 1 h, 3 h and 6 h at 26 °C, BY-2 cells 3 days after subculture
Procedure: To evaluate the cell penetration efficiency of the 55 CPPs into BY-2 suspension culture cells, we first optimized the CPP concentration and cell density using BP100 as a model CPP. The cell penetration efficiency of CPP into BY-2 cells was determined based on the ratio of numbers of cell with and without TAMRA signals of CPP by confocal laser scanning microscopy (CLSM) (Fig. 2). […] Thus, we used the BY-2 cells at 3 days after subculture as well as the incubation time of 3 hours for all the experiments in this study.
Suspension-cultured tobacco (Nicotiana tabacum) cv. BY-2 cells were provided by the RIKEN Bio Resource Center. […]
The penetration efficiency of CPPs into BY-2 suspension cells and young true leaves of N. benthamiana, A. thaliana, Moneymaker tomato, O. sativa Nipponbare, and poplar, and O. sativa callus was determined using confocal laser scanning microscopy (CLSM, ZeissLSM 700, Carl Zeiss, Oberkochen, Germany). The intracellular localization of TAMRA-labeled CPP was observed using excitation at 555 nm for the detection of TAMRA fluorescence. The total number of cells was counted using differential interfering contrast images. The efficiency was determined as follows: Cellpenetrationefficiency(%)=(thenumberofstainedcells)/(thenumberoftotalcells)×100 Various BY-2 cell concentrations (230 to >1000 cells/µL) of BY-2 cells were tested to determine the optimal cell concentration. […]

CN(C)c1ccc2c(-c3ccc(C(=O)O)cc3C(=O)[O-])c3ccc(N(C)C)cc3[o+]c2c1 [TAMRA, 5-carboxytetramethylrhodamine]
Penetration of TAMRA alone into BY-2 cells: could not penetrate
